Article PMC8233418, “Structure and transport mechanism of P5B-ATPases” (Nature Communications, 2021)

Columns and labels:
[1] = biological target: T1, Ypk9 (Thermochaetoides thermophila, UniProt G0S7G9); assay: ATPase activity, malachite green phosphate release; format: biochemical; details: 5 mM MgCl2, pH 7.0, 37 °C
T1 construct: gene CTHT_0028100; full length, introns removed; N- or C-terminal TEV-G4S-GFP-His10 fusion, made in S. cerevisiae PAP1500; purified in DDM/CHS (ATPase assay) or reconstituted in nanodiscs (cryo-EM)
T1 sequence (G0S7G9 entry or part of it): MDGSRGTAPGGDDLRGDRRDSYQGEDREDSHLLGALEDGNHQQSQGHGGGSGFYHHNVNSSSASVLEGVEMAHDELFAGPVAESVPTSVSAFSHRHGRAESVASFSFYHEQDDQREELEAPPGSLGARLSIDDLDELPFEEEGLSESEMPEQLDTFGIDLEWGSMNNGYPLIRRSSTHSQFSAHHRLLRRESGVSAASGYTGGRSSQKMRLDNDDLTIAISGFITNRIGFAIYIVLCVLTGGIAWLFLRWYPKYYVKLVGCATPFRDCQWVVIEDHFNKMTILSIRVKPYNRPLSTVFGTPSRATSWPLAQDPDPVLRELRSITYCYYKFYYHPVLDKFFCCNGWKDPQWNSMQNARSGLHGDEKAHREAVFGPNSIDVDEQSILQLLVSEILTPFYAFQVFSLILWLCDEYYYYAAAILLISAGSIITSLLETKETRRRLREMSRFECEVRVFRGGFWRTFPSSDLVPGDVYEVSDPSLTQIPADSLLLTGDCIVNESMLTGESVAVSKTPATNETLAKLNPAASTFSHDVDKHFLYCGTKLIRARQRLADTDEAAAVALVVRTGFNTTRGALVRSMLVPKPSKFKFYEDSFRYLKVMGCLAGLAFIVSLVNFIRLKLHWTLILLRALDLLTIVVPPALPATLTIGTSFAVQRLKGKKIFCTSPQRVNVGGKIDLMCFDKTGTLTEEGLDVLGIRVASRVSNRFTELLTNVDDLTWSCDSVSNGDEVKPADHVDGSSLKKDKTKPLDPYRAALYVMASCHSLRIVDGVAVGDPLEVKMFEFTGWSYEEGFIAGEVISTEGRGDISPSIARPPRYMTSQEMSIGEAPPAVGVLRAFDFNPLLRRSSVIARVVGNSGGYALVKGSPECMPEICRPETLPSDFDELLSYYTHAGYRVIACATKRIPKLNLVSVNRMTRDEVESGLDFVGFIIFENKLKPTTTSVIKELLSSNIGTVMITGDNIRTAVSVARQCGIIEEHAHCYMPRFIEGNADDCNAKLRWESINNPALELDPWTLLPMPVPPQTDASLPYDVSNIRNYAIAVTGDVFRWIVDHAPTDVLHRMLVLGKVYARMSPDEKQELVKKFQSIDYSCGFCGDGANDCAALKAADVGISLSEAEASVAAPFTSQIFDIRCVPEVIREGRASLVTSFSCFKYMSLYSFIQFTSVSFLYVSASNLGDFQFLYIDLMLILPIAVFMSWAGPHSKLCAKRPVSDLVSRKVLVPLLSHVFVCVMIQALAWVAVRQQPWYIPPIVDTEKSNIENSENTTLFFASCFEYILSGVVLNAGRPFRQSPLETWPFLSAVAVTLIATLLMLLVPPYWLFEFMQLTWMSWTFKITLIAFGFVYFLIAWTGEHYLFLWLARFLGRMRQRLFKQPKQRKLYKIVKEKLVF

[2] = biological target: T1, Ypk9; assay: ATPase activity, malachite green phosphate release; format: biochemical; details: 6 mM SPM, 1 mM ATP, 5 mM MgCl2, 100 mM KCl, pH 7.0, 37 °C, DDM/CHS
[3] = biological target: T1, Ypk9; assay: cryo-EM structure (E2.Pi-SPM […] Å; E2.Pi-AlF/SPM […] Å; E2P* […] Å); format: binding; details: 1 mM SPM with 1 mM MgCl2, AlF or BeF3−; nanodiscs; luminal cleft between TM2, 4 and 6

[F][Be-]([F])[F] [BeF3−]
inhibition at 1 mM ([1]; 1 mM BeF3−, 1 mM ATP, phosphate analogue): inhibited by the inhibitors BeF3^− and NaVO4^−

[O]=[V]([OH])([OH])[OH] [NaVO4−]
inhibition at 1 mM ([1]; 1 mM NaVO4, 1 mM ATP): inhibited by the inhibitors BeF3^− and NaVO4^−

NCCCNCCCCNCCCN [spermine]
ATPase stimulation [2]: ATPase activity of purified Ypk9 is stimulated by the polyamine spermine (SPM)
cryo-EM structure (E2.Pi-SPM 3.5 Å; E2.Pi-AlF/SPM 3.4 Å; E2P* 3.7 Å) [3]: The cleft harbors an additional, elongated density compatible with the presence of SPM
